Columns and labels:
S. aureus ATCC 33591 = assay: MIC, NCCLS broth microdilution, S. aureus ATCC 33591; type: cell-based, Staphylococcus aureus
From the text: (§1) It vitro biological activity data were collected for a variety of microorganisms, including Bacillus cereus (ATCC 11778), Staphylococcus aureus (ATCC 33591; ATCC 27660, a methicillin resistant strain (MRSA); ATCC 13709, a methicillin sensitive strain (MSSA)), Enterococcus faecalis (ATCC 29212), and Streptococcus pneumoniae (ATCC 49619). Additionally, antifungal activity data were collected for Candida albicans (ATCC 38247).
(§2) Compounds according to this invention were screened for their in vitro activities against selected species of bacteria and fungi. The minimal inhibition concentration (MIC) of these compounds was determined using the National Committee for Clinical Laboratory Standards (NCCLS) broth microdilution assay in microtiter plates, as set forth in: (1) the guidelines of the National Committee for Clinical Laboratory Standards (NCCLS) Document M7-A4 (NCCLS, 1997); (2) the guidelines of the National Committee for Clinical Laboratory Standards (NCCLS) Document M11-A4 (NCCLS, 1997); and (3) the guidelines and reference method of the National Committee for Clinical Laboratory Standards (NCCLS) Document M27-T (NCCLS, 1995). For antifungal assays, the method recommended in Murray, P R., 1995 Manual of Clinical Microbiology (ASM Press, Washington, D.C.), was employed.

B. cereus ATCC 11778 = assay: MIC, NCCLS broth microdilution, B. cereus; type: cell-based, Bacillus cereus
From the text: as §1, §2

E. faecalis ATCC 29212 = assay: MIC, NCCLS broth microdilution, E. faecalis; type: cell-based, Enterococcus faecalis
From the text: as §1, §2

C. albicans ATCC 38247 = assay: MIC, antifungal assay, C. albicans; type: cell-based, Candida albicans
From the text: as §1, §2

S. aureus ATCC 13709 = assay: MIC, NCCLS broth microdilution, S. aureus MSSA; type: cell-based, Staphylococcus aureus; conditions: S. aureus ATCC 13709, methicillin sensitive strain (MSSA)
From the text: as §1, §2

S. aureus ATCC 27660 = assay: MIC, NCCLS broth microdilution, S. aureus MRSA; type: cell-based, Staphylococcus aureus; conditions: S. aureus ATCC 27660, methicillin resistant strain (MRSA)
From the text: as §1, §2

S. pneumoniae ATCC 49619 = assay: MIC, NCCLS broth microdilution, S. pneumoniae; type: cell-based, Streptococcus pneumoniae
From the text: as §1, §2

| SMILES | Minimum Inhibitory Concentration (MIC), organism F (S. aureus ATCC 33591) | Minimum Inhibitory Concentration (MIC), organism A (B. cereus ATCC 11778) | Minimum Inhibitory Concentration (MIC), organism C (E. faecalis ATCC 29212) | Minimum Inhibitory Concentration (MIC), organism B (C. albicans ATCC 38247) | Minimum Inhibitory Concentration (MIC), organism D (S. aureus ATCC 13709) | Minimum Inhibitory Concentration (MIC), organism E (S. aureus ATCC 27660) | Minimum Inhibitory Concentration (MIC), organism G (S. pneumoniae ATCC 49619) |
| --- | --- | --- | --- | --- | --- | --- | --- |
| Cn1cc(NC(=O)c2cc3ccccc3cn2)cc1C(=O)Nc1cc(-c2nc3ccc(OC(=O)CCN4CCOCC4)cc3[nH]2)n(C)c1 [Compound A-9] | +++ (MIC ≦ 4 μg/mL) | +++ (MIC ≦ 4 μg/mL) | +++ (MIC ≦ 4 μg/mL) | >32 µg/mL | +++ (MIC ≦ 4 μg/mL) | +++ (MIC ≦ 4 μg/mL) | +++ (MIC ≦ 4 μg/mL) |
| Cn1cc(NC(=O)c2cc3ccccc3cn2)cc1C(=O)Nc1cc(-c2nc3ccc(OCCN4CCOCC4)cc3[nH]2)n(C)c1 [Compound A-10] | +++ (MIC ≦ 4 μg/mL) | +++ (MIC ≦ 4 μg/mL) | +++ (MIC ≦ 4 μg/mL) | >32 µg/mL | +++ (MIC ≦ 4 μg/mL) | +++ (MIC ≦ 4 μg/mL) | +++ (MIC ≦ 4 μg/mL) |
| Cn1cc(NC(=O)c2cc3ccccc3cn2)cc1C(=O)Nc1cc(-c2nc3ccc(NC(=O)CCN4CCOCC4)cc3[nH]2)n(C)c1 [Compound A-11] | +++ (MIC ≦ 4 μg/mL) | +++ (MIC ≦ 4 μg/mL) | +++ (MIC ≦ 4 μg/mL) | >32 µg/mL | +++ (MIC ≦ 4 μg/mL) | +++ (MIC ≦ 4 μg/mL) | +++ (MIC ≦ 4 μg/mL) |
| CN(C)CCCn1cc(NC(=O)c2cc3ccccc3cn2)cc1C(=O)Nc1cc(-c2nc3ncccc3[nH]2)n(C)c1 [Compound A-12] | +++ (MIC ≦ 4 μg/mL) | +++ (MIC ≦ 4 μg/mL) | +++ (MIC ≦ 4 μg/mL) | >32 µg/mL | +++ (MIC ≦ 4 μg/mL) | +++ (MIC ≦ 4 μg/mL) | +++ (MIC ≦ 4 μg/mL) |
| CN(C)CCCn1cc(NC(=O)c2cc3ccccc3cn2)cc1C(=O)Nc1cc(-c2nc3ccncc3[nH]2)n(C)c1 [Compound A-13] | +++ (MIC ≦ 4 μg/mL) | +++ (MIC ≦ 4 μg/mL) | +++ (MIC ≦ 4 μg/mL) | >32 µg/mL | +++ (MIC ≦ 4 μg/mL) | +++ (MIC ≦ 4 μg/mL) | +++ (MIC ≦ 4 μg/mL) |
| Cn1cc(NC(=O)c2cc3ccccc3cn2)cc1C(=O)Nc1cc(-c2nc3ccncc3[nH]2)n(C)c1 [Compound A-14] | +++ (MIC ≦ 4 μg/mL) | +++ (MIC ≦ 4 μg/mL) | +++ (MIC ≦ 4 μg/mL) | >32 µg/mL | +++ (MIC ≦ 4 μg/mL) | +++ (MIC ≦ 4 μg/mL) | +++ (MIC ≦ 4 μg/mL) |
| CN(C)CCCn1cc(NC(=O)c2cc3ccccc3cn2)cc1C(=O)Nc1cc(-c2nc3ncncc3[nH]2)n(C)c1 [Compound A-15] | + (12 ≦ MIC ≦ 32 μg/mL) | + (12 ≦ MIC ≦ 32 μg/mL) | ++ (4 < MIC < 12 μg/mL) | >32 µg/mL | + (12 ≦ MIC ≦ 32 μg/mL) | + (12 ≦ MIC ≦ 32 μg/mL) | +++ (MIC ≦ 4 μg/mL) |
| CN(C)CCCn1cc(NC(=O)c2ccc(F)cc2F)cc1C(=O)Nc1cc(-c2nc3ncccc3[nH]2)n(C)c1 [Compound A-17] | +++ (MIC ≦ 4 μg/mL) | +++ (MIC ≦ 4 μg/mL) | +++ (MIC ≦ 4 μg/mL) | >32 µg/mL | +++ (MIC ≦ 4 μg/mL) | +++ (MIC ≦ 4 μg/mL) | +++ (MIC ≦ 4 μg/mL) |
| CN(C)CCCn1cc(NC(=O)c2ccc(F)cc2F)cc1C(=O)Nc1cc(-c2nc3ccncc3[nH]2)n(C)c1 [Compound A-18] | +++ (MIC ≦ 4 μg/mL) | + (12 ≦ MIC ≦ 32 μg/mL) | +++ (MIC ≦ 4 μg/mL) | >32 µg/mL | + (12 ≦ MIC ≦ 32 μg/mL) | +++ (MIC ≦ 4 μg/mL) | +++ (MIC ≦ 4 μg/mL) |
| CN(C)CCCn1cc(NC(=O)c2ccc(F)cc2F)cc1C(=O)Nc1cc(-c2nc3ncncc3[nH]2)n(C)c1 [Compound A-19] | + (12 ≦ MIC ≦ 32 μg/mL) | + (12 ≦ MIC ≦ 32 μg/mL) | ++ (4 < MIC < 12 μg/mL) | >32 µg/mL | + (12 ≦ MIC ≦ 32 μg/mL) | + (12 ≦ MIC ≦ 32 μg/mL) | +++ (MIC ≦ 4 μg/mL) |
| Cn1cc(NC(=O)c2cc(NC(=O)c3sc4ccccc4c3Cl)cn2CCCN2CCCCC2)cc1-c1nc2ccccc2[nH]1 [Compound A-23] | +++ (MIC ≦ 4 μg/mL) | +++ (MIC ≦ 4 μg/mL) | +++ (MIC ≦ 4 μg/mL) | + (12 ≦ MIC ≦ 32 μg/mL) | +++ (MIC ≦ 4 μg/mL) | +++ (MIC ≦ 4 μg/mL) | +++ (MIC ≦ 4 μg/mL) |
| Cn1cc(NC(=O)c2cc(NC(=O)c3sc4ccccc4c3Cl)cn2CCCN2CCC(F)(F)CC2)cc1-c1nc2ccccc2[nH]1 [Compound A-25] | + (12 ≦ MIC ≦ 32 μg/mL) | >32 µg/mL | + (12 ≦ MIC ≦ 32 μg/mL) | >32 µg/mL | + (12 ≦ MIC ≦ 32 μg/mL) | + (12 ≦ MIC ≦ 32 μg/mL) | ++ (4 < MIC < 12 μg/mL) |
| Cn1cc(NC(=O)c2cc(NC(=O)c3sc4ccccc4c3Cl)cn2CCCN2CCOCC2)cc1-c1nc2ccccc2[nH]1 [Compound A-26] | +++ (MIC ≦ 4 μg/mL) | +++ (MIC ≦ 4 μg/mL) | +++ (MIC ≦ 4 μg/mL) | >32 µg/mL | +++ (MIC ≦ 4 μg/mL) | +++ (MIC ≦ 4 μg/mL) | +++ (MIC ≦ 4 μg/mL) |
